Results reported in patent US6878531B1, “Method for multiple site-directed mutagenesis” (Medical College of Georgia Research Institute, priority 2003, dated 2005).
≈ marks a conversion by molar mass, not a printed value.

Test system: C.albicans cells
Experiment: Effective inhibitory concentrations for C.albicans cells grown in YPD medium
Assay type: cell-based, Candida albicans
Details: C.albicans cells grown in YPD medium at 30° C.

SMILES: CN[C@@H]1[C@@H](O)[C@@H](O[C@@H]2[C@@H](O)[C@H](O[C@H]3O[C@H]([C@@H](C)O)[C@@H](O)[C@H](O)[C@H]3N)[C@@H](N)C[C@H]2N)OC[C@]1(C)O [G418]
- IC50 (effective inhibitory concentration): 11 µg/mL (≈ 22.2 µM)
- IC90 (effective inhibitory concentration): 39 µg/mL (≈ 78.5 µM)
